The source made the active and inactive calls. The calls are words filed in the database; no cut-off is given here.
What was measured:
[1] = test system: Rattus norvegicus; test: Procognitive activity in Wistar rat assessed as increase in acetylcholine level in medial prefrontal cortex at 10 mg/kg, sc administered as an acute dose measured up to 4 hrs by brain microdialysis method; assay type: functional, organism-based; design: dose 10 mg/kg
[2] = Apparent volume of distribution in beagle dog at 1 mg/kg, iv; assay type: ADME, organism-based, Canis lupus familiaris; design: dose 1 mg/kg, route intravenous; conditions: in vivo, read-out: Vz
[3] = Drug metabolism in Wistar rat liver microsomes at 2.5 uM at 30 mins by LC-MS/MS analysis; assay type: ADME, Microsome; conditions: read-out: Drug metabolism
[4] = Oral bioavailability in fasted Wistar rat at 5 mg/kg; assay type: ADME, organism-based; conditions: in vivo
[5] = molecular target: 5-hydroxytryptamine receptor 7 (Homo sapiens, UniProt P34969); test: Binding affinity to 5HT7 receptor
Chain of 5-hydroxytryptamine receptor 7 (P34969 whole entry): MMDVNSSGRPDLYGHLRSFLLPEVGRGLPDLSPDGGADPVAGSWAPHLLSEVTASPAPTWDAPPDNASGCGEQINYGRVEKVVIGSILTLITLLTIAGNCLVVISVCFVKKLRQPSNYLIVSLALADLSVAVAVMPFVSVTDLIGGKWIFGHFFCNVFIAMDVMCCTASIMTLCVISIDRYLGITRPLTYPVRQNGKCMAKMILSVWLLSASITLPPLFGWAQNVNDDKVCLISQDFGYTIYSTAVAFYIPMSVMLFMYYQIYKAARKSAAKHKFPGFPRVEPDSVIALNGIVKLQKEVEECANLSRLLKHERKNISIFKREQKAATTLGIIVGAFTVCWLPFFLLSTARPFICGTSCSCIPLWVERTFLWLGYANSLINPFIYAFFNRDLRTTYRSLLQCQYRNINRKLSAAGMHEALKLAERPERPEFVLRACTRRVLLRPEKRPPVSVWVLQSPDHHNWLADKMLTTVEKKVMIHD

[6] = test system: Rattus norvegicus; test: Procognitive activity in Wistar rat assessed as reversal of time delay-induced memory deficit at 0.3 mg/kg, po by object recognition test; assay type: functional, organism-based; design: dose 0.3 mg/kg
[7] = molecular target: 5-hydroxytryptamine receptor 4 (Homo sapiens, UniProt Q13639); test: Binding affinity to 5HT4 receptor
Chain of 5-hydroxytryptamine receptor 4 (Q13639 whole entry): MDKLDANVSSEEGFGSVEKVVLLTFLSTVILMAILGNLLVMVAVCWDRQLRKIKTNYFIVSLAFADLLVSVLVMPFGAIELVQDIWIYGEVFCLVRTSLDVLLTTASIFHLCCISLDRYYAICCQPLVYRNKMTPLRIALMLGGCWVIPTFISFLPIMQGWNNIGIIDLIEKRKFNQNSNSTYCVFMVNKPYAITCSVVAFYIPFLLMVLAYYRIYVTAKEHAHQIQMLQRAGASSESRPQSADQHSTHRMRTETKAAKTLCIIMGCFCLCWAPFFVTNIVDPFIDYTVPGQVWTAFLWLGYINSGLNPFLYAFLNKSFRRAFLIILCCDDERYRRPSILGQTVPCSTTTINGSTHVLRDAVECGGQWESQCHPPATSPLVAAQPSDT

[8] = molecular target: T1, 5-hydroxytryptamine receptor 1A (Homo sapiens, UniProt P08908); test: Binding affinity to 5HT1A receptor
T1 sequence (P08908 whole entry): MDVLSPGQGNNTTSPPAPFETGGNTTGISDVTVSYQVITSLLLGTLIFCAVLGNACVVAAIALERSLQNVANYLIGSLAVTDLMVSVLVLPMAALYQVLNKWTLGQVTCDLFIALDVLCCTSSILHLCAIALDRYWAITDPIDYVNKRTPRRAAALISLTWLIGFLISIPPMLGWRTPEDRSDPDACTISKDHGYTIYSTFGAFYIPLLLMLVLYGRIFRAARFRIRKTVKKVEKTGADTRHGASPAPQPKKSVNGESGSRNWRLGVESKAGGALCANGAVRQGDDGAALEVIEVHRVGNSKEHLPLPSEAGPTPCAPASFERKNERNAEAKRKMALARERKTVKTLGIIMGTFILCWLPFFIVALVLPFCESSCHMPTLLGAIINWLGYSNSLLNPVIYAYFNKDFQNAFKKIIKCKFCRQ

[9] = Half life in beagle dog at 1 mg/kg, iv; assay type: ADME, organism-based, Canis lupus familiaris; design: dose 1 mg/kg, route intravenous; conditions: in vivo
[10] = test system: Rattus norvegicus; test: Procognitive activity in sc dosed Wistar rat assessed as increase in acetylcholine level in medial prefrontal cortex administered as an acute dose measured up to 4 hrs by brain microdialysis method; assay type: functional, organism-based
[11] = Half life in Wistar rat at 5 mg/kg, iv; assay type: ADME, organism-based; design: dose 5 mg/kg, route intravenous; conditions: in vivo
[12] = Clearance in beagle dog at 1 mg/kg, iv; assay type: ADME, organism-based, Canis lupus familiaris; design: dose 1 mg/kg, route intravenous; conditions: in vivo
[13] = molecular target: 5-hydroxytryptamine receptor 6 (Homo sapiens) (UniProt P50406); test: Antagonist activity at human recombinant 5HT6 receptor expressed in CHO cells assessed as inhibition of 5HT-induced luciferase activity after 4 hrs by reporter gene assay; assay type: functional, cell-based
Chain of 5-hydroxytryptamine receptor 6 (Homo sapiens) (P50406 whole entry): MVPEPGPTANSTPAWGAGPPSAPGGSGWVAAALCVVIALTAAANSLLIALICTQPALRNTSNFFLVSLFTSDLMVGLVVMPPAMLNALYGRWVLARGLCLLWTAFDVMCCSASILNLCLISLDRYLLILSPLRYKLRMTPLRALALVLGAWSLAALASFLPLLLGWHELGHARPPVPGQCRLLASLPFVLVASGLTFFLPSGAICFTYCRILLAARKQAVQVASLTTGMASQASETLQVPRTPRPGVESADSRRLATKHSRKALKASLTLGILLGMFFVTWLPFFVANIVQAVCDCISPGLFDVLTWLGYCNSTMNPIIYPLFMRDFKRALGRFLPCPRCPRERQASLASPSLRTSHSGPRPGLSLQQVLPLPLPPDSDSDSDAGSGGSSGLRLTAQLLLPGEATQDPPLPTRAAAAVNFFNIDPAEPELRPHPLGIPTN

With `COc1ccc(S(=O)(=O)n2cc(C)c3cc(Cl)cnc32)cc1NC1CCN(C)CC1` the Activity [1] was “Active”, the Vd [2] was 2.1 L/kg and the metabolised at 0.5 h, 2.5 µM [3] was 76%. For the same molecule, the bioavailability [4] was 29%, the Ki [5] was 1960 nM and the Activity [6] was “Active”. For the same molecule, the EC50 [7] was over 10000 nM, the EC50 [8] was over 10000 nM and the half-life [9] was 2.3 h. For the same molecule, the Activity [10] was “Dose-dependent effect”, the half-life [11] was 1.7 h and the clearance [12] was 12 mL/min/kg. The Kb [13] was 0.04 nM.

Source: ChEMBL document CHEMBL2176989, “Design, synthesis, and pharmacological evaluation of piperidin-4-yl amino aryl sulfonamides: novel, potent, selective, orally active, and brain penetrant 5-HT₆ receptor antagonists” (J Med Chem, 2012)
